Measured values reported in patent publication US6100074A, “Mutant mono-oxygenase cytochrome P-450 cam” (BG plc, priority 1994, dated 2000).

What was measured:
wild type P450cam [1] = molecular target: T1, wild type P450cam (Pseudomonas putida, UniProt P00183); assay: Turnover rate measured as NADH consumption rate, wild type; assay type: biochemical, P. putida; parameters: reconstituted with putidaredoxin and putidaredoxin reductase
[2] = molecular target: T2, P450cam mutant Y96A, C334A (Pseudomonas putida, UniProt P00183, C335A/Y97A); assay type: biochemical, P. putida; conditions: also contains C334A
T2 construct: reconstituted with putidaredoxin and putidaredoxin reductase
Procedure: A solution containing 10 μM putidaredoxin, 2 μM putidaredoxin reductase, 1 μM cytochrome P-450cam mono-oyxgenase (wild-type or mutant) and 1 mM diphenylmethane in 100 mM KC1, 20 mM KH2 PO4 pH7.4 was preincubated at 25° C. in a shaker for 5 min. The enzymatic reaction was initiated by firstly adding NADH to a total concentration of 2 mM. Further four aliquots of NADH (to increase the NADH concentration by 1 mM each time) were added in intervals of 5 min and the reaction quenched after 30 min by adding 0.5 ml chloroform. The chloroform layer was analysed by gas chromatography.
(§1) Reaction products for some substrate compounds have been purified by high performance liquid chromatography and identified by mass spectroscopy, nuclear magnetic resonance, and/or co-elution. […] Table 4(a) to 4(h) details the product distributions for mutant and substrate combinations where this has been elucidated to date.
All mutants listed below also contain the C334A mutation.
Turnover rate measured as NADH consumption rate
(nmole NADH/nmole P450cam/s).

P-450cam mutant Y96A [3] = molecular target: T3, P-450cam mutant Y96A (Pseudomonas putida, UniProt P00183, Y97A); assay: biochemical; assay type: binding; conditions: for percent displacement of bound DTT at 200 µM: Mutant Y96A, 200 μM DTT, 200 μM test compound
P-450cam mutant Y96A [4] = molecular target: T3, P-450cam mutant Y96A; assay type: biochemical; parameters: key: Those substrates where oxidation has been demonstrated by means of NADH turnover are marked with a + sign
[5] = molecular target: T2, P450cam mutant Y96A, C334A; assay type: biochemical, P. putida
Procedure: (§2) […] The enzymatic reaction was initiated by firstly adding NADH to a total concentration of 2 mM. Further four aliquots of NADH (to increase the NADH concentration by 1 mM each time) were added in intervals of 5 min and the reaction quenched after 30 min by adding 0.5 ml chloroform. The chloroform layer was analysed by gas chromatography.
as §1
(§3) Product structure and distributions following oxidation of substrates
(§4) active site mutants. All mutants shown below also contain the C334A

[6] = molecular target: T4, P450cam mutant Y96F, C334A (Pseudomonas putida, UniProt P00183, C335A/Y97F); assay type: biochemical, P. putida
T4 construct: reconstituted with putidaredoxin and putidaredoxin reductase
Procedure: as §2, §1, §3, §4

[7] = molecular target: T5, P450cam mutant Y96L, C334A (Pseudomonas putida, UniProt P00183, C335A/Y97L); assay: Product distribution following oxidation of substrates, Y96L (also C334A); assay type: biochemical, P. putida
T5 construct: reconstituted with putidaredoxin and putidaredoxin reductase
Procedure: as §2, §1, §3, §4

wild type P450cam [8] = molecular target: T1, wild type P450cam; assay: Product distribution following oxidation of substrates, WT; assay type: biochemical, P. putida; parameters: reconstituted with putidaredoxin and putidaredoxin reductase
Procedure: as §2, §1, §3

[9] = molecular target: T6, P450cam mutant Y96V, C334A (Pseudomonas putida, UniProt P00183, C335A/Y97V); assay: Product distribution following oxidation of substrates, Y96V (also C334A); assay type: biochemical, P. putida
T6 construct: reconstituted with putidaredoxin and putidaredoxin reductase
Procedure: as §2, §1, §3, §4

[10] = molecular target: T7, P450cam mutant F87A-F96G-F193A (C334A) (Pseudomonas putida, UniProt P00183, C335A/F194A/F88A/Y97G); assay type: biochemical, P. putida
T7 construct: reconstituted with putidaredoxin and putidaredoxin reductase
Procedure: as §2, §1, §3, §4

[11] = phosphate buffer, read-out: Vs DTT (percentage displacement of DTT bound to P-450)

T6 sequence (P16640 whole entry): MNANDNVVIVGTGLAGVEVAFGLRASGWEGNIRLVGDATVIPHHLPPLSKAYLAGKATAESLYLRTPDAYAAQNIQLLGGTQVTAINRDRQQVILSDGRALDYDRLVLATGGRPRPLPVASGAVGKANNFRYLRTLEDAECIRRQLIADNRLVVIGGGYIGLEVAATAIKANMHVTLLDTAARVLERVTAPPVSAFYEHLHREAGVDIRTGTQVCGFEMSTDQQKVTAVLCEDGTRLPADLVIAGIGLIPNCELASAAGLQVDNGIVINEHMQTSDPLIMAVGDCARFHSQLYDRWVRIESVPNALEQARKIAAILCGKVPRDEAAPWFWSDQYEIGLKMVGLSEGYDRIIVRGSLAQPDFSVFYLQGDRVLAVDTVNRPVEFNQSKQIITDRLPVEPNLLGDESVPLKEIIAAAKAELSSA
T6 sequence (P00259 whole entry, further chain): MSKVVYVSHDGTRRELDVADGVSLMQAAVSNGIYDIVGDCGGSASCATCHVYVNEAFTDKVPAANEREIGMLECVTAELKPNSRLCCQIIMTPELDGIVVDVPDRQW
T6 sequence (P00183 2-415 Y97V/C335A): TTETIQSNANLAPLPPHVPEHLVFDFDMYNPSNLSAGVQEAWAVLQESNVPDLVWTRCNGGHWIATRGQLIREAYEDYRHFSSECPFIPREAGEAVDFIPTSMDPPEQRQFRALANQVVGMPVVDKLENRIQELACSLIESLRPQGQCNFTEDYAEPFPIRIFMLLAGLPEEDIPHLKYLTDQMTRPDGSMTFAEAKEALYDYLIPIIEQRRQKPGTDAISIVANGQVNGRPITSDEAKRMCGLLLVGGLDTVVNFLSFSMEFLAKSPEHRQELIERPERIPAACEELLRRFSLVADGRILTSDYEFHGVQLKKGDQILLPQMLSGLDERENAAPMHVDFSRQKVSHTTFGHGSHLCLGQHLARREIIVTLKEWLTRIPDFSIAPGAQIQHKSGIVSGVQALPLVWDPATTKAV
T4 sequence (P16640 whole entry): as the sequence (P16640 whole entry) above
T4 sequence (P00183 2-415 Y97F/C335A): as the sequence (P00183 2-415 Y97V/C335A) above, with V96F counted along it
T4 sequence (P00259 whole entry, further chain): as the sequence (P00259 whole entry, further chain) above
T7 sequence (P00259 whole entry): as the sequence (P00259 whole entry, further chain) above
T7 sequence (P16640 whole entry, further chain): as the sequence (P16640 whole entry) above
T7 sequence (P00183 2-415 F88A/Y97G/F194A/C335A): as the sequence (P00183 2-415 Y97V/C335A) above, with F87A, V96G, F193A counted along it
T5 sequence (P00259 whole entry): as the sequence (P00259 whole entry, further chain) above
T5 sequence (P16640 whole entry, further chain): as the sequence (P16640 whole entry) above
T5 sequence (P00183 2-415 Y97L/C335A): as the sequence (P00183 2-415 Y97V/C335A) above, with V96L counted along it
T2 sequence (P00259 whole entry): as the sequence (P00259 whole entry, further chain) above
T2 sequence (P00183 2-415 Y97A/C335A): as the sequence (P00183 2-415 Y97V/C335A) above, with V96A counted along it
T2 sequence (P16640 whole entry, further chain): as the sequence (P16640 whole entry) above
T1 sequence (P00259 whole entry): as the sequence (P00259 whole entry, further chain) above
T1 sequence (P00183 whole entry): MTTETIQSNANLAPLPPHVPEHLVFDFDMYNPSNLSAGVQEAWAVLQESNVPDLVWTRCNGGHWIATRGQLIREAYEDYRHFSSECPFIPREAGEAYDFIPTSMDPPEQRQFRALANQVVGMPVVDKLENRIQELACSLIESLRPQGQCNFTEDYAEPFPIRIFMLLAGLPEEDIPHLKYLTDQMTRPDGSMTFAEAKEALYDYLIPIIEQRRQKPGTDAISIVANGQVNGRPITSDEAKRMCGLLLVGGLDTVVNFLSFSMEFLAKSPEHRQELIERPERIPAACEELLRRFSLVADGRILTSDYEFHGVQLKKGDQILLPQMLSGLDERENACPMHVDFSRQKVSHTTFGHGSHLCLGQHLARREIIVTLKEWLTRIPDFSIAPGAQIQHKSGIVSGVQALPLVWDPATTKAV
T1 sequence (P16640 whole entry, further chain): as the sequence (P16640 whole entry) above
T3 sequence (P00183 2-415 Y97A): as the sequence (P00183 2-415 Y97V/C335A) above, with V96A, A334C counted along it

Compound: CC(C)CC(C)(C)C [2,2,4-trimethyl pentane]
- Turnover rate measured as NADH consumption rate (wild type P450cam [1]): 0.9 nmole NADH/nmole P450cam/s
- Turnover rate measured as NADH consumption rate [2]: 5.3 nmole NADH/nmole P450cam/s

Compound: CCCC(C)(C)C [2,2-dimethyl pentane]
- Turnover rate measured as NADH consumption rate (wild type P450cam [1]): 5.2 nmole NADH/nmole P450cam/s
- Turnover rate measured as NADH consumption rate [2]: 12.8 nmole NADH/nmole P450cam/s

Compound: CC(C)CC(C)C [2,4-dimethyl pentane]
- Turnover rate measured as NADH consumption rate (wild type P450cam [1]): 0.2 nmole NADH/nmole P450cam/s
- Turnover rate measured as NADH consumption rate [2]: 12.6 nmole NADH/nmole P450cam/s

Compound: CCCC(C)C [2-methyl pentane]
- Turnover rate measured as NADH consumption rate (wild type P450cam [1]): 3.8 nmole NADH/nmole P450cam/s
- Turnover rate measured as NADH consumption rate [2]: 11.7 nmole NADH/nmole P450cam/s

Compound: CCC(C)CC [3-methyl pentane]
- Turnover rate measured as NADH consumption rate (wild type P450cam [1]): 1.3 nmole NADH/nmole P450cam/s
- Turnover rate measured as NADH consumption rate [2]: 14.2 nmole NADH/nmole P450cam/s

Compound: CCCC(C)CCC [4-methyl heptane]
- Turnover rate measured as NADH consumption rate (wild type P450cam [1]): 1.4 nmole NADH/nmole P450cam/s
- Turnover rate measured as NADH consumption rate [2]: 10.2 nmole NADH/nmole P450cam/s

Compound: C1CCCCC1 [Cyclohexane]
- percent displacement of bound DTT at 200 µM (P-450cam mutant Y96A [3]; [11]): 60%
- NADH turnover? (P-450cam mutant Y96A [4]): +

Compound: CCCCCC [Hexane]
- Vs DTT (percentage displacement of DTT bound to P-450) (P-450cam mutant Y96A [3]; phosphate buffer, 200 µM): 40
- inhibition at 200 µM (P-450cam mutant Y96A [3]; read-out: Vs DTT (percentage displacement of DTT bound to P-450)): 60%
- NADH turnover? (P-450cam mutant Y96A [4]): +
- Turnover rate measured as NADH consumption rate [2]: 6.0 nmole NADH/nmole P450cam/s
- Relative activity (WT = 1) [5]: 25.5
- Relative activity (WT = 1) [6]: 18.2

Compound: c1ccc2ccccc2c1 [Naphthalene]
- percent displacement of bound DTT at 200 µM (P-450cam mutant Y96A [3]; [11]): 20%
- Total products [7]: 0.7 area/10^5
- Products (%): 1-ol ([7]; naphthalene): 100%
- Products (%): 2-ol ([7]; naphthalene): 0%
- Total products (wild type P450cam [8]): 0.016 area/10^5
- Products (%): 1-ol (wild type P450cam [8]; naphthalene): 100%
- Products (%): 2-ol (wild type P450cam [8]; naphthalene): 0%
- Total products [9]: 1.4 area/10^5
- Products (%): 1-ol ([9]; naphthalene): 100%
- Products (%): 2-ol ([9]; naphthalene): 0%
- Total products [5]: 1.1 area/10^5
- Products (%): 1-ol ([5]; naphthalene): 100%
- Products (%): 2-ol ([5]; naphthalene): 0%
- Total products [6]: 2.4 area/10^5
- Products (%): 1-ol ([6]; naphthalene): 100%
- Products (%): 2-ol ([6]; naphthalene): 0%
- Total products [10]: 0.1 area/10^5
- Products (%): 1-ol ([10]; naphthalene): 100%
- Products (%): 2-ol ([10]; naphthalene): 0%

Compound: c1ccc2c(c1)ccc1ccccc12 [Phenanthrene]
- percent displacement of bound DTT at 200 µM (P-450cam mutant Y96A [3]; [11]): 20%
- NADH turnover? (P-450cam mutant Y96A [4]): +
- Total products [7]: 2.8 area/10^6
- Products (%): A ([7]; phenanthrene): 35.5%
- Products (%): B ([7]; phenanthrene): 41%
- Products (%): C ([7]; phenanthrene): 9%
- Products (%): D ([7]; phenanthrene): 14.5%
- Total products (wild type P450cam [8]): 0.075 area/10^6
- Products (%): A (wild type P450cam [8]; phenanthrene): 38%
- Products (%): B (wild type P450cam [8]; phenanthrene): 15%
- Products (%): C (wild type P450cam [8]; phenanthrene): 12%
- Products (%): D (wild type P450cam [8]; phenanthrene): 35%
- Total products [9]: 1.6 area/10^6
- Products (%): A ([9]; phenanthrene): 41%
- Products (%): B ([9]; phenanthrene): 38%
- Products (%): C ([9]; phenanthrene): 11%
- Products (%): D ([9]; phenanthrene): 10%
- Total products [5]: 7.0 area/10^6
- Products (%): A ([5]; phenanthrene): 49%
- Products (%): B ([5]; phenanthrene): 23%
- Products (%): C ([5]; phenanthrene): 13%
- Products (%): D ([5]; phenanthrene): 15%
- Total products [6]: 4.5 area/10^6
- Products (%): A ([6]; phenanthrene): 41%
- Products (%): B ([6]; phenanthrene): 31%
- Products (%): C ([6]; phenanthrene): 5%
- Products (%): D ([6]; phenanthrene): 23%
- Total products [10]: 0.065 area/10^6
- Products (%): A ([10]; phenanthrene): 27%
- Products (%): B ([10]; phenanthrene): 41%
- Products (%): C ([10]; phenanthrene): 3%
- Products (%): D ([10]; phenanthrene): 29%
